Measured values published in patent EP4722207A1, “OXOISOINDOLINYL-SUBSTITUTED TETRAHYDROPYRIMIDINEDIONE DERIVATIVE AND USE THEREOF” (Gluetacs Therapeutics (Shanghai) Co., Ltd., priority 2023, dated 2024).

Columns and labels:
WEE1 = biological target: T1, WEE1 (Homo sapiens, UniProt P30291+Q96SW2); assay: Western-blot assay, substrate protein degradation in hPBMCs: WEE1; type: cell-based; conditions: 24 hours of compound treatment, 50 nM and 500 nM
T1 construct: effects of the compounds of the present disclosure on the expression of target proteins in cells; endogenous in cells; host or cells: human PBMCs (hPBMCs)

IKZF1 = biological target: T2, IKZF1 (Homo sapiens, UniProt Q13422+Q96SW2); assay: Western-blot assay, substrate protein degradation in hPBMCs: IKZF1; type: cell-based; conditions: 24 hours of compound treatment, 50 nM and 500 nM
T2 construct: effects of the compounds of the present disclosure on the expression of target proteins in cells; endogenous in cells; host or cells: human PBMCs (hPBMCs)

IKZF2 = biological target: T3, IKZF2 (Homo sapiens, UniProt Q96SW2+Q9UKS7); assay: Western-blot assay, substrate protein degradation in hPBMCs: IKZF2; type: cell-based; conditions: 24 hours of compound treatment, 50 nM and 500 nM
T3 construct: effects of the compounds of the present disclosure on the expression of target proteins in cells; endogenous in cells; host or cells: human PBMCs (hPBMCs)

IKZF3 = biological target: T4, IKZF3 (Homo sapiens, UniProt Q96SW2+Q9UKT9); assay: Western-blot assay, substrate protein degradation in hPBMCs: IKZF3; type: cell-based; conditions: 24 hours of compound treatment, 50 nM and 500 nM
T4 construct: effects of the compounds of the present disclosure on the expression of target proteins in cells; endogenous in cells; host or cells: human PBMCs (hPBMCs)

CK1α = biological target: T5, CK1α (Homo sapiens, UniProt P48729+Q96SW2); assay: Western-blot assay, substrate protein degradation in hPBMCs: CK1α; type: cell-based; conditions: 24 hours of compound treatment, 50 nM and 500 nM
T5 construct: effects of the compounds of the present disclosure on the expression of target proteins in cells; endogenous in cells; host or cells: human PBMCs (hPBMCs)

GSPT1 = biological target: T6, GSPT1 (Homo sapiens, UniProt P15170+Q96SW2); assay: Western-blot assay, substrate protein degradation in hPBMCs: GSPT1; type: cell-based; conditions: 24 hours of compound treatment, 50 nM and 500 nM
T6 construct: effects of the compounds of the present disclosure on the expression of target proteins in cells; endogenous in cells; host or cells: human PBMCs (hPBMCs)

H292 = assay: Cell viability assay (CellTiter-Meiluncell Luminescent), tumor cell proliferation, H292; conditions: Homo sapiens, NCI-H292, 96 h; for inhibition at 0.01 µM: read-out: Inhibition Rate at 10 nM (%); for inhibition at 0.5 µM: read-out: Inhibition Rate at 500 nM (%)
H2228 = assay: Cell viability assay (CellTiter-Meiluncell Luminescent), tumor cell proliferation, H2228; conditions: Homo sapiens, NCI-H2228, 96 h; for inhibition at 0.01 µM: read-out: Inhibition Rate at 10 nM (%); for inhibition at 0.5 µM: read-out: Inhibition Rate at 500 nM (%)
MDA-MB-231 = assay: Cell viability assay (CellTiter-Meiluncell Luminescent), tumor cell proliferation, MDA-MB-231; conditions: Homo sapiens, MDA-MB-231, 96 h; for inhibition at 0.01 µM: read-out: Inhibition Rate at 10 nM (%); for inhibition at 0.5 µM: read-out: Inhibition Rate at 500 nM (%)
Description: The tumor cells used herein were cultured in a cell culture medium listed in table 2 at 37°C in an incubator with 5% CO2. Prior to experimentation, all cell lines used were correctly identified by STR profiling, and tested negative for mycoplasma contamination using a mycoplasma detection kit through routine screenings.
On the following day, the test compounds of the present disclosure were subjected to serial dilution. […] Subsequently, 0.5 µL of the test compound dilution was transferred into the 96-well plate containing the cells, with each well containing 100 µL of cell culture medium. […] Into the 96-well plate, the diluted test compounds and corresponding detection reagents were added, resulting in final test compound concentrations of 500 nM and 10 nM, respectively. The experimental procedure is described below using the diluted 2 µM test compound as an example.
After the cells were treated with the compounds of the present disclosure for a specified period, the cell viability assay reagent was added to the culture medium according to the kit's instructions to determine cell viability. […] All controls were treated using the same procedure as the compounds of the present disclosure. The growth inhibition curves for the compounds of the present disclosure were plotted using Prism GraphPad software, and the IC50 values were calculated therefrom.

T5 sequence (P48729 whole entry): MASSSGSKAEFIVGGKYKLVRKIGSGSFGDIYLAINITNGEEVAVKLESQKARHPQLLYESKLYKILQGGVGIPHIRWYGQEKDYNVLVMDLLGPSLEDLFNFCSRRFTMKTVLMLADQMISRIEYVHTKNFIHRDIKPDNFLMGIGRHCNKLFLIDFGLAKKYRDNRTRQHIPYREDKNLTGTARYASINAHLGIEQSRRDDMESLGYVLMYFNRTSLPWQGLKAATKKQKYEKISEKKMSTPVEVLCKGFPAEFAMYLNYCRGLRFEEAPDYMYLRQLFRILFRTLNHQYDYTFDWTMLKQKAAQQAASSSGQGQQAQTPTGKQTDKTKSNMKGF
T5 sequence (Q96SW2 whole entry): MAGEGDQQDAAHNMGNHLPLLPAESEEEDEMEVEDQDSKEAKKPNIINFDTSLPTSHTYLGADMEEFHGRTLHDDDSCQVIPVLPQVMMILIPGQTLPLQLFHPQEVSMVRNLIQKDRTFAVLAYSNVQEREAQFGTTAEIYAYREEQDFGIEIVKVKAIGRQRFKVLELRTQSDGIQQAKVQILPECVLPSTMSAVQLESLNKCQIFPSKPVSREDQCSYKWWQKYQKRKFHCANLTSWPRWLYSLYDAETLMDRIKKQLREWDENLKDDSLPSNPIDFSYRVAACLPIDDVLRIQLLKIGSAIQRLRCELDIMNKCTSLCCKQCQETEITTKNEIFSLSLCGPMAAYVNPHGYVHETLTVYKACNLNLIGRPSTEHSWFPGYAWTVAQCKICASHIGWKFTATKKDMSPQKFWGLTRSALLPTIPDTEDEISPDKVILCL
T5 sequence (Q16531 whole entry partner): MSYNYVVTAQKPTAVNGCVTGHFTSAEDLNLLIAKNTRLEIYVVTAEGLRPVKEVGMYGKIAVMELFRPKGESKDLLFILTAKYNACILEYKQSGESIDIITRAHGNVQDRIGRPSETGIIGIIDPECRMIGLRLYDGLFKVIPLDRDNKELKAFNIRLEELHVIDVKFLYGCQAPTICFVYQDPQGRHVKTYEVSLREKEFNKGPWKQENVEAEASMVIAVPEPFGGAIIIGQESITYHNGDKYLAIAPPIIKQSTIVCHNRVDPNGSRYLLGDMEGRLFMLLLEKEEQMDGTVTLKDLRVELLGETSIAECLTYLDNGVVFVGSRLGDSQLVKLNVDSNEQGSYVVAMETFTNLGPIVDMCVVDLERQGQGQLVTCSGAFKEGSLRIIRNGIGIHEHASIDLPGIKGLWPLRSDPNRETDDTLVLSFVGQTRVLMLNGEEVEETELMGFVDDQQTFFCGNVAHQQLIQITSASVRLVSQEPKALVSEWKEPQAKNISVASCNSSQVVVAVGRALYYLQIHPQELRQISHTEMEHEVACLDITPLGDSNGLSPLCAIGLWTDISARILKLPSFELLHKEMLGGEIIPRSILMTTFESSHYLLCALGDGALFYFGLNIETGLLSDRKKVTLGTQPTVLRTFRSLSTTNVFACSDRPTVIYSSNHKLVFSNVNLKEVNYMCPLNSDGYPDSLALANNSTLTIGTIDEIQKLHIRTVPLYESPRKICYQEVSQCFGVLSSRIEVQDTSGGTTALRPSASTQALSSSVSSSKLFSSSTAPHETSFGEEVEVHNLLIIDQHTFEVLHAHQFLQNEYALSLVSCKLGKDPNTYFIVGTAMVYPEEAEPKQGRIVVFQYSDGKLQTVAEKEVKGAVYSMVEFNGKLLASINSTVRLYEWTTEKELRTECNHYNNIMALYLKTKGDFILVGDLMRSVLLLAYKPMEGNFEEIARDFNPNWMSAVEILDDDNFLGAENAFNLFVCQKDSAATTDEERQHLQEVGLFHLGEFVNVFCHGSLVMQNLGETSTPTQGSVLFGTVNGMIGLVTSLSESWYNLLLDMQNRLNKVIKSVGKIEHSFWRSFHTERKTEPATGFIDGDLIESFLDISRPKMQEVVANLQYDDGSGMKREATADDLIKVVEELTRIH
T4 sequence (Q9UKT9 whole entry): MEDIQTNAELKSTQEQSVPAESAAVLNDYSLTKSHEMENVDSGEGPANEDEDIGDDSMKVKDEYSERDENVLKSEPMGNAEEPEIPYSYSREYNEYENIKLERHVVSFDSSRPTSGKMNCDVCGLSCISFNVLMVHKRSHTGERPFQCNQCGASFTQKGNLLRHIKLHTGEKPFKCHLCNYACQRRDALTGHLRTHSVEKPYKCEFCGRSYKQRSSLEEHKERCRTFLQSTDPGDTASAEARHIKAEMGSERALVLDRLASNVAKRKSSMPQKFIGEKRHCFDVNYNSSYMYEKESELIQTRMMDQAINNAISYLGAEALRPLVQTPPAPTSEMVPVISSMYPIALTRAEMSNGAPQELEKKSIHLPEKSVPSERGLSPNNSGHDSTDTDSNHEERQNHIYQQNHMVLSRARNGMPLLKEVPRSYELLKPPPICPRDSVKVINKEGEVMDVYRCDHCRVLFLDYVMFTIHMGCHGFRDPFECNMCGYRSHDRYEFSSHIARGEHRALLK
T4 sequence (Q96SW2 whole entry): as the sequence (Q96SW2 whole entry) above
T4 sequence (Q16531 whole entry partner): as the sequence (Q16531 whole entry partner) above
T2 sequence (Q13422 whole entry): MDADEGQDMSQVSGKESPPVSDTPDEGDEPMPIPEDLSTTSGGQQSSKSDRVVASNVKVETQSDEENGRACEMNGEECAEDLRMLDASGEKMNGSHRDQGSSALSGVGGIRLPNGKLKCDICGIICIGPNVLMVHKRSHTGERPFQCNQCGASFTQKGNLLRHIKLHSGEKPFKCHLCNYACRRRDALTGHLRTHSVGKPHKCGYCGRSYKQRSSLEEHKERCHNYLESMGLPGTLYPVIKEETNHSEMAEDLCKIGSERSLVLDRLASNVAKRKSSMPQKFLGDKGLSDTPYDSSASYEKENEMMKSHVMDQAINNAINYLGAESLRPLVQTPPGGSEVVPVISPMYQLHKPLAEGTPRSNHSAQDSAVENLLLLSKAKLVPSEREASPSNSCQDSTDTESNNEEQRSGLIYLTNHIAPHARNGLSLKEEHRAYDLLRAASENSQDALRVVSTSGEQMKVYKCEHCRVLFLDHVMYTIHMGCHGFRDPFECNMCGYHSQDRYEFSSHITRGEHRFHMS
T2 sequence (Q96SW2 whole entry): as the sequence (Q96SW2 whole entry) above
T2 sequence (Q16531 whole entry partner): as the sequence (Q16531 whole entry partner) above
T6 sequence (P15170 whole entry): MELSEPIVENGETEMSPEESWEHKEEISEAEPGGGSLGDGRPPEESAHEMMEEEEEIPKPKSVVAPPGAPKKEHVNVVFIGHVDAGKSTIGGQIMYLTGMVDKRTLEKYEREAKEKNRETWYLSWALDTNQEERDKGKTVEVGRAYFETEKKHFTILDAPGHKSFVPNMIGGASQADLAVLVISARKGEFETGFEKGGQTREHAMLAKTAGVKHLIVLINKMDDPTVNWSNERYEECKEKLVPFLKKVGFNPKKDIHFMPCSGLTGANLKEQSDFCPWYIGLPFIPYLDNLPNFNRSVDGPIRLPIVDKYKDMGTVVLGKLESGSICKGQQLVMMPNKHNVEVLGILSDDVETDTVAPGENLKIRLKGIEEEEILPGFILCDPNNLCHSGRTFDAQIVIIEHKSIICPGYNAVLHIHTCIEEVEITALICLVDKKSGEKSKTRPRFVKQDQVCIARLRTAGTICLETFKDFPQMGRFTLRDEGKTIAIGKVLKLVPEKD
T6 sequence (Q96SW2 whole entry): as the sequence (Q96SW2 whole entry) above
T6 sequence (Q16531 whole entry partner): as the sequence (Q16531 whole entry partner) above
T3 sequence (Q9UKS7 whole entry): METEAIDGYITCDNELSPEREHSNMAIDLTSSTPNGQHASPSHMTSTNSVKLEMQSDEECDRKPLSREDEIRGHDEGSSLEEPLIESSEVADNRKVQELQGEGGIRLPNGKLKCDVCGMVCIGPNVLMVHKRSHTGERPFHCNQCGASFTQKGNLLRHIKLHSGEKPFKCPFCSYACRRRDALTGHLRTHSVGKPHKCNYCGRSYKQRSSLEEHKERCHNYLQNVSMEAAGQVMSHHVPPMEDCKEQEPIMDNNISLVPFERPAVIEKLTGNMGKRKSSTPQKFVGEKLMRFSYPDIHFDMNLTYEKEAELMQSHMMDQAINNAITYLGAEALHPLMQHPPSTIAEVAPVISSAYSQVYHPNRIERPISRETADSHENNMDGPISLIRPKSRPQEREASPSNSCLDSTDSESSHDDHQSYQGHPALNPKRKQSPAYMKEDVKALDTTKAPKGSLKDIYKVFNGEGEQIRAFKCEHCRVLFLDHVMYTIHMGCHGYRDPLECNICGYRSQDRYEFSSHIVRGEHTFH
T3 sequence (Q96SW2 whole entry): as the sequence (Q96SW2 whole entry) above
T3 sequence (Q16531 whole entry partner): as the sequence (Q16531 whole entry partner) above

SMILES	substrate protein remaining % WEE1 (WEE1)	substrate protein remaining % IKZF1 (IKZF1)	substrate protein remaining % IKZF2 (IKZF2)	substrate protein remaining % IKZF3 (IKZF3)	substrate protein remaining % CK1α (CK1α)	substrate protein remaining % GSPT1 (GSPT1)	inhibition at 0.01 µM (H292) [%]	inhibition at 0.5 µM (H292) [%]	inhibition at 0.01 µM (H2228) [%]	inhibition at 0.5 µM (H2228) [%]	inhibition at 0.01 µM (MDA-MB-231) [%]	inhibition at 0.5 µM (MDA-MB-231) [%]
Cc1csc2ncnc(N3CCN(Cc4ccc5c(c4)C(=O)N(N4CCC(=O)NC4=O)C5=O)CC3)c12 [GT-08091, 2-(2,4-dioxotetrahydropyrimidin-1(2H)-yl)-5-((4-(5-methylthieno[2,3-d]pyrimidin-4-yl)piperazin-1-yl)methyl)isoindoline-1,3-dione]	A (0% ≤ substrate protein remaining % ≤ 80%)	B (80%< substrate protein remaining %≤ 100%)	B (80%< substrate protein remaining %≤ 100%)	B (80%< substrate protein remaining %≤ 100%)	A (0% ≤ substrate protein remaining % ≤ 80%)	A (0% ≤ substrate protein remaining % ≤ 80%)	20 to 40	20 to 40	20 to 25	20 to 25	15 to 18	18 to 25
Cc1sc2ncnc(N3CCN(Cc4ccc5c(c4)C(=O)N(N4CCC(=O)NC4=O)C5=O)CC3)c2c1C [GT-08094, 5-((4-(5,6-dimethylthieno[2,3-d]pyrimidin-4-yl)piperazin-1-yl)methyl)-2-(2,4-dioxotetrahydropyrimidin-1(2H)-yl)isoindoline-1,3-dione]	A (0% ≤ substrate protein remaining % ≤ 80%)	B (80%< substrate protein remaining %≤ 100%)	B (80%< substrate protein remaining %≤ 100%)	B (80%< substrate protein remaining %≤ 100%)	A (0% ≤ substrate protein remaining % ≤ 80%)	A (0% ≤ substrate protein remaining % ≤ 80%)	20 to 40	20 to 40	30 to 40	25 to 30	25 to 40	25 to 40
O=C1CCN(N2C(=O)c3ccc(CN4CCN(c5ncnc6sc(-c7ccccc7)cc56)CC4)cc3C2=O)C(=O)N1 [GT-08097, 2-(2,4-dioxotetrahydropyrimidin-1(2H)-yl)-5-((4-(6-phenylthieno[2,3-d]pyrimidin-4-yl)piperazin-1-yl)methyl)isoindoline-1,3-dione]	A (0% ≤ substrate protein remaining % ≤ 80%)	B (80%< substrate protein remaining %≤ 100%)	B (80%< substrate protein remaining %≤ 100%)	B (80%< substrate protein remaining %≤ 100%)	A (0% ≤ substrate protein remaining % ≤ 80%)	A (0% ≤ substrate protein remaining % ≤ 80%)	5 to 10	10 to 15	15 to 20	30 to 40	10 to 15	18 to 25
Cc1nc(C2CCN(Cc3ccc4c(c3)C(=O)N(N3CCC(=O)NC3=O)C4=O)CC2)c2c3c(sc2n1)CCCC3 [GT-08111, 2-(2,4-dioxotetrahydropyrimidin-1(2H)-yl)-5-((4-(2-methyl-5,6,7,8-tetrahydrobenzo[4,5]thieno[2,3-d]pyrimidin-4-yl)piperidin-1-yl)methyl)isoindoline-1,3-dione]	B (80%< substrate protein remaining %≤ 100%)	B (80%< substrate protein remaining %≤ 100%)	B (80%< substrate protein remaining %≤ 100%)	B (80%< substrate protein remaining %≤ 100%)	A (0% ≤ substrate protein remaining % ≤ 80%)	A (0% ≤ substrate protein remaining % ≤ 80%)	20 to 40	20 to 40	20 to 25	25 to 30	25 to 40	25 to 40
